This is an account of results in ChEMBL document CHEMBL1135011, “Isolation and antimalarial activity of peroxydisulfate oxidation products of primaquine” (Bioorg Med Chem Lett, 2002).

For assay [1], the system named is Plasmodium falciparum. The assay is described as follows: (§1) Effective concentration for schizonticidal activity against Plasmodium falciparum FDL-HD. It is filed as functional, organism-based.
Assay [2] has as its system Mus musculus. The assay is described as follows: Gametocytocidal activity against Plasmodium yoelii infected mice (2) on intraperitoneal dose of 10 mg/kg at -1h of mosquito feeding was determined and average of oocyst determined to find infectivity. It is filed as functional.
The species named for assay [3] is Mus musculus. The assay is described as follows: Activity by comparing the number of oocytes on midgets of mosquitoes fed on drug treated on mice (2) with those of insects fed on untreated animals at -1h of mosquito feeding; 12/15. It is filed as functional.
For assay [4], the species on record is Mus musculus. The experiment in a line: Activity by comparing the number of oocytes on midgets of mosquitoes fed on drug treated on mice (1) with those of insects fed on untreated animals at 6 hr of mosquito feeding; 16/20. It is filed as functional.
For assay [5], the system named is Mus musculus. The assay is described as follows: Tested for in vivo gametocytocidal activity against Plasmodium yoelii infected mice (1), on intraperitoneal dose of 10 mg/kg at +6h of mosquito feeding; Activity = No of Oocytes for infectivity. It is filed as functional.
The subject of assay [6] is Mus musculus. The experiment in a line: Tested for in vivo gametocytocidal activity against Plasmodium yoelii infected mice (1), on intraperitoneal dose of 10 mg/kg at +24h of mosquito feeding; Activity = No of Oocytes for infectivity. It is filed as functional.
The species named for assay [7] is Mus musculus. The experiment in a line: Activity by comparing the number of oocytes on midgets of mosquitoes fed on drug treated on mice (1) with those of insects fed on untreated animals at -1h of mosquito feeding; 18/20. It is filed as functional.
The species entered for assay [8] is Mus musculus. The assay is described as follows: Activity by comparing the number of oocytes on midgets of mosquitoes fed on drug treated on mice (2) with those of insects fed on untreated animals at -1h of mosquito feeding; 5/15. It is filed as functional.
In assay [9] the test system is Mus musculus. The experiment in a line: Tested for in vivo gametocytocidal activity against Plasmodium yoelii infected mice, on intraperitoneal dose of 10 mg/kg at -1h of mosquito feeding; Activity = No of Oocytes for infectivity. It is filed as functional.
Assay [10] relates to Plasmodium falciparum. The assay is described as §1. It is filed as functional.
The test system of assay [11] is Plasmodium falciparum. The experiment in a line: (§2) Effective concentration for gametocidal activity against Plasmodium falciparum FDL-HD. It is filed as functional.
For assay [12], the species on record is Mus musculus. The experiment in a line: Activity by comparing the number of oocytes on midgets of mosquitoes fed on drug treated on mice (1) with those of insects fed on untreated animals at 24 hr of mosquito feeding; 10/12. It is filed as functional.
The test system of assay [13] is Mus musculus. The experiment in a line: Gametocytocidal activity against Plasmodium yoelii infected mice (2) on intraperitoneal dose of 10 mg/kg at 24 hr of mosquito feeding was determined and average of oocyst determined to find infectivity. It is filed as functional.
Assay [14] relates to Plasmodium falciparum. Described as §2. It is filed as functional, organism-based.
For assay [15], the system named is Mus musculus. The experiment in a line: Gametocytocidal activity against Plasmodium yoelii infected mice (2) on intraperitoneal dose of 10 mg/kg at 6 hr of mosquito feeding was determined and average of oocyst determined to find infectivity. It is filed as functional.
For assay [16], the species on record is Mus musculus. The experiment in a line: Activity by comparing the number of oocytes on midgets of mosquitoes fed on drug treated on mice (2) with those of insects fed on untreated animals at -1h of mosquito feeding; 13/15. It is filed as functional.
Assay [17] deals with Mus musculus. The experiment in a line: Gametocytocidal activity against Plasmodium yoelii infected mice (3) on intraperitoneal dose of 10 mg/kg at -1h of mosquito feeding was determined and average of oocysts determined to find infectivity. It is filed as functional.
Assay [18] is filed under the species Mus musculus. The experiment in a line: Activity by comparing the number of oocytes on midgets of mosquitoes fed on drug treated on 1 mice with those of insects fed on untreated animals at 24 hr of mosquito feeding; 0/20. It is filed as functional.
For assay [19], the species on record is Mus musculus. The assay is described as follows: Activity by comparing the number of oocytes on midgets of mosquitoes fed on drug treated on 1 mice with those of insects fed on untreated animals at -1h of mosquito feeding; 15/15. It is filed as functional.
The species named for assay [20] is Mus musculus. The experiment in a line: Activity by comparing the number of oocytes on midgets of mosquitoes fed on drug treated on mice (2) with those of insects fed on untreated animals at 24 hr of mosquito feeding; 0/20. It is filed as functional.
For assay [21], the species on record is Mus musculus. The assay is described as follows: Activity by comparing the number of oocytes on midgets of mosquitoes fed on drug treated on mice (2) with those of insects fed on untreated animals at 6 hr of mosquito feeding; 0/20. It is filed as functional.
The species named for assay [22] is Mus musculus. The experiment in a line: Activity by comparing the number of oocytes on midgets of mosquitoes fed on drug treated on mice (3) with those of insects fed on untreated animals at 6 hr of mosquito feeding; 0/10. It is filed as functional.
Assay [23] concerns Mus musculus. The assay is described as follows: Gametocytocidal activity against Plasmodium yoelii infected mice (2) on intraperitoneal dose of 10 mg/kg at -1h of mosquito feeding was determined and average of oocysts determined to find infectivity. It is filed as functional.
The species named for assay [24] is Mus musculus. The experiment in a line: Activity by comparing the number of oocytes on midgets of mosquitoes fed on drug treated on mice (3) with those of insects fed on untreated animals at -1h of mosquito feeding; 8/11. It is filed as functional.
The species named for assay [25] is Mus musculus. The assay is described as follows: Activity by comparing the number of oocytes on midgets of mosquitoes fed on drug treated on 1 mice with those of insects fed on untreated animals at 6 hr of mosquito feeding; 0/20. It is filed as functional.
For assay [26], the species on record is Mus musculus. The experiment in a line: Activity by comparing the number of oocytes on midgets of mosquitoes fed on drug treated on mice (2) with those of insects fed on untreated animals at -1h of mosquito feeding; 16/20. It is filed as functional.
Assay [27] is filed under the species Mus musculus. The experiment in a line: Activity by comparing the number of oocytes on midgets of mosquitoes fed on drug treated on 1 mice with those of insects fed on untreated animals at -1h of mosquito feeding; 18/20. It is filed as functional.

For the compound `COc1cc(NC(C)CCCN)c2ncccc2c1-c1c(OC)cc(NC(C)CCCN)c2ncccc12` (stereo unspecified), the IC50 turned out to be 0.031 ug well-1 in the assay on Plasmodium falciparum [1] and 0.036 ug well-1 with Plasmodium falciparum [14]. In addition, the Activity in the assay on Mus musculus [2] was 260.3; with Mus musculus [5] it was >300; with Mus musculus [6], >300; in the assay on Mus musculus [9] it was >300; with Mus musculus [13], 68.33; with Mus musculus [15], 221.3. For the same compound, the Ratio in the assay filed under Mus musculus [3] is given as 12; in the assay filed under Mus musculus [4] it was 16; in the assay listed under Mus musculus [7] it was 18; in the assay listed under Mus musculus [8] it was 5; in the assay listed under Mus musculus [12], 10; in the assay listed under Mus musculus [16], 13. The results for the IC90 with Plasmodium falciparum [10] and with Plasmodium falciparum [11] were 0.19 ug well-1 and 0.062 ug well-1, respectively.

Turning to `COc1cc(NC(C)CCCN)c2ncccc2c1NC(C)CCCN` (stereo unspecified), the Activity in the assay on Mus musculus [17] was 185; in the assay with Mus musculus [23] it was 240; in the assay on Mus musculus [9], 315. In addition, the IC50 is 0.046 ug well-1 in the assay with Plasmodium falciparum [1] and 0.026 ug well-1 in the assay on Plasmodium falciparum [14]. The Ratio in the assay listed under Mus musculus [18] is recorded as 0; in the assay listed under Mus musculus [19], 15; in the assay filed under Mus musculus [20], 0; in the assay listed under Mus musculus [21], 0; in the assay filed under Mus musculus [22], 0; in the assay filed under Mus musculus [24], 8. Moreover, the figures for the Ratio in the assay listed under Mus musculus [25] and in the assay listed under Mus musculus [26] were 0 and 16, respectively. Also, the figures for the IC90 with Plasmodium falciparum [10] and with Plasmodium falciparum [11] were 0.235 ug well-1 and 0.055 ug well-1, respectively.

Regarding `COc1c(O)c(NC(C)CCCN)c2ncccc2c1-c1c(OC)c(O)c(NC(C)CCCN)c2ncccc12` (stereo unspecified), the IC50 is on record as 0.49 ug well-1 in the assay with Plasmodium falciparum [1] and > 150 ug well-1 in the assay on Plasmodium falciparum [14]. In addition, the IC90 was 1.75 ug well-1 in the assay with Plasmodium falciparum [10] and >150 ug well-1 in the assay on Plasmodium falciparum [11].

Turning to `CC(CCCN)N(C(C)CCCN)C(C)CCCN` (stereo unspecified), the results for the IC50 in the assay on Plasmodium falciparum [1] and in the assay on Plasmodium falciparum [14] were 0.155 ug well-1 and 0.115 ug well-1, respectively. In addition, the results for the IC90 in the assay with Plasmodium falciparum [10] and in the assay with Plasmodium falciparum [11] were 0.245 ug well-1 and 0.38 ug well-1, respectively.

As to `CC(CCCN)Nc1c(O)c(O)c(NC(C)CCCN)c2ncccc12` (stereo unspecified), the IC50 is given as > 50 ug well-1 with Plasmodium falciparum [1] and > 150 ug well-1 with Plasmodium falciparum [14]. The results for the IC90 in the assay with Plasmodium falciparum [10] and in the assay on Plasmodium falciparum [11] were >50 ug well-1 and >150 ug well-1, respectively.

For `CCN(CC)CCCC(C)Nc1ccnc2cc(Cl)ccc12` (stereo unspecified) [CHLOROQUINE], the IC50 in the assay on Plasmodium falciparum [1] was 0.011 ug well-1. The IC90 in the assay on Plasmodium falciparum [10] is 0.015 ug well-1.

As for `COc1cc(NC(C)CCCN)c2ncccc2c1` (stereo unspecified) [PRIMAQUINE], the Ratio in the assay filed under Mus musculus [18] was determined as 0; in the assay filed under Mus musculus [25] it was 0; in the assay filed under Mus musculus [27], 18. Moreover, the Activity in the assay on Mus musculus [9] is 280.7. Besides, in the assay on Plasmodium falciparum [11], the IC90 was 0.38 ug well-1. In the assay with Plasmodium falciparum [14], this compound came in with an IC50 of 0.115 ug well-1.
